Tests used:
[1] = system: afferent nerves of the feet of female Rhesus monkeys; assay: Analgesia test: threshold voltage for stimulus response on electrical stimulation of the feet of female Rhesus monkeys; type: in vivo, Rhesus monkeys (macaca mulatta); details: for Median percentage change in the threshold voltage: ibuprofen forms 50 mg/kg, acetylsalicylic acid 100 mg/kg; for change in the threshold voltage (in words) / increase of the threshold voltage / time to achieve the increase of threshold voltage / analgetic effect (in words): 50 mg/kg ibuprofen form
Method: In this test the afferent nerves of the feet of female Rhesus monkeys were electrically stimulated. For the test four adult female Rhesus monkeys (macaca mulatta) were used.
The monkeys were trained in such a way that they sat in chairs wearing an aluminium foil shoe during the test.
On the days when the test was carried out the monkeys were sat in these stools. One foot of each monkey was smeared with electrode gel and the aluminium shoe was fitted over it.
A Grass-stimulator (S 88) was connected to the monkeys via a multiple-way switch (the positive lead was connected to the aluminium shoe, the negative lead to the chair). An electrical stimulation, each time of 2 seconds duration with a frequency of 60 Hz was applied (the magnitude of stimulation was altered by adjusting the voltage supplied to the stimulator; the corresponding current was measured by means of an ammeter connected in series).
The stimulus required to achieve a stimulus threshold was determined. For this purpose the voltage was raised stepwise. The threshold voltage was taken as the lowest voltage at which bending of the toes or twisting of the foot occurred.
Before application of the medicament the animals were allowed to acclimatize for at least one hour. During this period the threshold voltage was determined at 10 minute intervals until steady readings were obtained.
Following the acclimatization period the carrier material or the active ingredient were orally administered. The threshold voltage required to effect a stimulus response in the foot of each monkey was determined at 30 minute intervals for 3 hours and then after 4 and 5 hours after administration of the active ingredient.
The observer and the stimulation apparatus were concealed behind a one-way mirror.
Between the individual tests there was an interval of at least one week.
The active ingredients 1 to 4 were prepared for oral administration by suspending them in 1.0% w/v Tragacanth. The medicaments were prepared directly before use and administered in a dose of 4 ml/kg.

prostaglandin synthesis = details: animals with inflammation; cited from earlier work
humans [2] = details: cited from earlier work
[3] = human, oral
[4] = metabolites excreted in the urine; cited from earlier work
humans [5] = assay: Analgetic activity in humans; type: in vivo; details: no data given
[6] = 0,5 h after oral administration
[7] = 1,0 h after oral administration, *P < 0,05 vs carrier (Mann-Whitney U) over (+)-S-Ibuprofen and acetylsalicylic acid
[8] = 1,5 h after oral administration, *P < 0,05 vs carrier (Mann-Whitney U) over (+)-S-Ibuprofen
[9] = 2,0 h after oral administration
[10] = 2,5 h after oral administration
[11] = 3,0 h after oral administration
[12] = 4,0 h after oral administration
[13] = 5,0 h after oral administration
[14] = oral, 100 mg/kg acetylsalicylic acid

Compound: CC(=O)Oc1ccccc1C(=O)O [Acetylsalicylic acid]
- Median percentage change in the threshold voltage [1, 6]: +35,8%
- Median percentage change in the threshold voltage [1, 7]: +56,6%
- Median percentage change in the threshold voltage [1, 8]: +41,4%
- Median percentage change in the threshold voltage [1, 9]: +80,4%
- Median percentage change in the threshold voltage [1, 10]: +74,6%
- Median percentage change in the threshold voltage [1, 11]: +72,8%
- Median percentage change in the threshold voltage [1, 12]: +66,1%
- Median percentage change in the threshold voltage [1, 13]: +59,8%
- increase of the threshold voltage required for a stimulus response [1, 14]: ~80%
- time to achieve the level of analgesia [1, 14]: ≤ 2 h
- threshold voltage increase remaining throughout the duration of the test ([1]; oral, 100 mg/kg acetylsalicylic acid, after level achieved, up to 5 h): above 60%

Compound: CC(C)Cc1ccc(C(C)C(=O)O)cc1 (racemic) [(±)-ibuprofen, 2-(4-Isobutylphenyl)-propionic acid]
- Median percentage change in the threshold voltage [1, 6]: +6,4%
- Median percentage change in the threshold voltage [1, 7]: +8,4%
- Median percentage change in the threshold voltage [1, 8]: +15,7%
- Median percentage change in the threshold voltage [1, 9]: +15,7%
- Median percentage change in the threshold voltage [1, 10]: +8,5%
- Median percentage change in the threshold voltage [1, 11]: +18,1%
- Median percentage change in the threshold voltage [1, 12]: +9,7%
- Median percentage change in the threshold voltage [1, 13]: +17,0%
- change in the threshold voltage (in words) ([1]; oral): the level remained during the rest of the test period
- increase of the threshold voltage ([1]; oral): approximately 15%
- time to achieve the increase of threshold voltage ([1]; oral): ≤ 90 min
- analgetic effect (in words) ([1]; oral, listed as ibuprofen racemate, 50 mg/kg): analgetic activity was assumed
- analgetic effect (in words) ([1]; oral, listed as racemate, 50 mg/kg): weak but long-lasting analgetic effect
- difference between the median change between ibuprofen racemate and carrier ([1]; oral, 50 mg/kg, every time after 90 minutes with the exception of 150 minutes): more than 20%
- inhibition of prostaglandin synthesis (prostaglandin synthesis): effective in inhibiting prostaglandin synthesis
- known period of action (humans [2]; human): ca. 6 hours
- side effects (humans [2]; in vivo): usual unwanted side effects of NSAR
- therapeutic effect in humans (humans [2]; therapy of humans): reduces pain, swelling and fever caused by inflammation

Compound: CC(C)Cc1ccc([C@@H](C)C(=O)O)cc1 [(R)-(-)-ibuprofen]
- Median percentage change in the threshold voltage [1, 6]: -5,7%
- Median percentage change in the threshold voltage [1, 7]: +4,0%
- Median percentage change in the threshold voltage [1, 8]: +4,5%
- Median percentage change in the threshold voltage [1, 9]: +0,5%
- Median percentage change in the threshold voltage [1, 10]: -4,7%
- Median percentage change in the threshold voltage [1, 11]: -7,0%
- Median percentage change in the threshold voltage [1, 12]: -2,3%
- Median percentage change in the threshold voltage [1, 13]: -3,4%
- analgetic effect (in words) ([1]; oral): inactive
- change in the threshold voltage (in words) ([1]; oral): no significant change in the threshold voltage
- late plasma levels as % of the maximum level ([3]; after the first 4 to 6 hours): less than 10%
- plasma levels relative to those after administration of the (S)-(+)-form ([3]; only after the first 4 to 6 hours): equally high or higher levels
- conversion to the active (S)-(+)-enantiomer in vivo [4]: converted to the active (S)-(+)-enantiomer in vivo

Compound: CC(C)Cc1ccc([C@H](C)C(=O)O)cc1 [(S)-(+)-ibuprofen]
- Median percentage change in the threshold voltage [1, 6]: +9,5%
- Median percentage change in the threshold voltage [1, 7]: +33,5%
- Median percentage change in the threshold voltage [1, 8]: +51,2%
- Median percentage change in the threshold voltage [1, 9]: +53,9%
- Median percentage change in the threshold voltage [1, 10]: +45,5%
- Median percentage change in the threshold voltage [1, 11]: +42,3%
- Median percentage change in the threshold voltage [1, 12]: +33,7%
- Median percentage change in the threshold voltage [1, 13]: +38,2%
- amount of (S)-(+)-ibuprofen required relative to racemic ibuprofen to give a given analgetic activity ([1]; analgesia tests on monkeys): less than half as much
- analgetic effect (in words) ([1]; oral): notable analgesic effect which was maintained for several hours
- change in the threshold voltage (in words) ([1]; oral): the threshold voltage remained elevated during the rest of the test period
- increase of the threshold voltage ([1]; oral): ~50%
- time to achieve the increase of threshold voltage ([1]; oral): 90 min
- reduced dose requirement versus racemate shown in humans (humans [5]): could also be shown in humans
